Laboratory results: patent US20050037975A1, “Method for treatment of glutamate related disorders” (priority 1997, published 2005)
Marks after values point to notes of the source that are not given here.

Key:
[1] = system: NMDA-induced seizures; experiment: NMDA-induced seizures in mice; assay type: in vivo
Procedure: Animals—Male Swiss Webster mice (20-30 g) or male Sprague-Dawley rats (250-300 g) were used. All that employed animals were conducted in strict compliance with the NIH guidelines on animal use and institutional regulations concerning animal experimentation. Animals were exposed to hyperbaric oxygen in a specify designed press chamber as previously described (M. D. Faiman et al., Biochem. Pharmacol., 20, 3049-3067 (1971); M. D. Faiman et al. Aerosp. Med.,45, 29032.(1974)). The time to first clonic-tonic seizure after brining animals to a final pressure of five atmospheres of 100% oxygen or after intraperitoneal injection of convulsants was noted by. criteria outlined previously (M. D. Faiman et al. (1971), supra M. D. Faiman et al. (1974), supra). Unless otherwise specified, the ability of DETC-MeSO to prevent seizures was tested by intraperitoneal injection of 5.2 mg/kg of DETC-MeSO 1-2 hours prior to bringing the animal to a final pressure of 5 atmospheres of 100% oxygen or intraperitoneal injection of N-methyl-D-asparate (NMA) (125 mg/kg) r L-methionine sulfoximine (MetSOX) (250 mg/kg). Evaluation of the statistics for whole animal experiments or for changes in brain glutamate binding after administration of DETC-MeSO was conducted by use of the program GraphPAD InStat from Graph PAD Software (San Diego, Calif.).

[2] = target: T1, mouse liver low Km ALDH (Mus musculus, UniProt P47738); experiment: In vivo inhibition of mouse liver aldehyde dehydrogenase
T1 construct: Liver aldehyde dehydrogenase was extracted and assayed as previously described; from tissue; host or cells: liver of treated mice
T1 sequence (P47738 20-519): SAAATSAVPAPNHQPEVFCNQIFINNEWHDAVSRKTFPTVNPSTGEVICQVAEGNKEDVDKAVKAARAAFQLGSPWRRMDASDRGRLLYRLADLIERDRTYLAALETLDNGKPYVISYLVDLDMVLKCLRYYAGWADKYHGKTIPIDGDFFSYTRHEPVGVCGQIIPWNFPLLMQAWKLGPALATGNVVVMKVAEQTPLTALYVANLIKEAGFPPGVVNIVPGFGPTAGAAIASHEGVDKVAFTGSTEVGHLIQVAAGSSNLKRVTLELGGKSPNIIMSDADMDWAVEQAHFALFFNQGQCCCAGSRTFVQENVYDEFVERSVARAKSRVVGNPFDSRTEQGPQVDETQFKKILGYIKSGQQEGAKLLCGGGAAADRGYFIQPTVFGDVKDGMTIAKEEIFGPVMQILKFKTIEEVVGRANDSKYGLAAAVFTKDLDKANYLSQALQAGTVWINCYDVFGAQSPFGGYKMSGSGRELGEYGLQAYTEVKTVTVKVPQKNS
Procedure: Reagents—DETC-MeSO was synthesized by the method of Hart and Faiman (B. W. Hart et al., Biochem. Pharmacol.), 43, 403-406 (1992). Carbamoylated glutathione, S-(N,N-diethylcarbamoyl)glutathione (DETC-GS), was prepared essentially as described by Jin et al. (L. Jin, supra). The structures and purity of DETC-MeSO and DETC-GS were confirmed by 300 MHz NMR and FAB-tandem mass spectrometry. A QE300 NMR spectrometer (General Electric, Fremont, Calif.) and Autospec-Q Tandem Hybrid mass spectrometer (Fiscons/VG Analytical Limited, Manchester, England) were employed for these analyses. Liver aldehyde dehydrogenase was extracted and assayed as previously described (B. W. Hart et al., supra). MetSOX monosodium L-glutamate, glycine, glutathione, and NMDA were purchased from Sigma Chemical Company (St. Louis, Mo.). L-[3-^3H]Glutamate (46 Ci/mmol) was obtained from Amerisham Life Science (Buckinghamshire, England).

`CCN(CC)C(=O)[S+](C)[O-]` (stereo not drawn) [DETC-MeSO, S-Methyl-N,N-Diethylthiolcarbamate Sulfoxide] was tested, and the “effect on seizures that result from NMDA administration” value ([1]; NMDA 125 mg/kg i.p.) was “prevented seizures”, the “number of animals that exhibited the effect/total number of animals in the group” value ([1]; NMDA 125 mg/kg, 5.2 mg/kg i.p. 1-2 hours prior) was “(0/6)^a” and the “mean time to seizure” value ([1]; NMDA 125 mg/kg, 5.2 mg/kg i.p. 1-2 hours prior, observation 2 hours) was >120^a min. For the same molecule, the “inactivation of ALDH” value ([2]; 5.2 mg/kg i.p. in mice, in 1 hour) was 80%, the “effective concentration at its site of action in vivo” value ([2]; 5.2 mg/kg i.p. in mice, worked out from inactivation rate) was “about 11 μM” and the inhibition at 2.6 mg/kg ([2]; mouse, ip, 2.6 mg/kg i.p., read-out: inhibition of mouse liver enzyme (ALDH)) was 84%. It also gave an inhibition at 30 µmol/kg ([2]; mouse, 30 μmol/kg intravenous, mice) of 44.9 ± 1%.
